From ChEMBL document CHEMBL2396526, “Chromenylchalcones showing cytotoxicity on human colon cancer cell lines and in silico docking with aurora kinases” (Bioorg Med Chem, 2013) come the findings set out here.

In general, inhibition refers to the share of the control response that was lost under treatment. In general, IC50 refers to the concentration that inhibits the measured activity by half.

Assay [1] has as its system HCT-116. As to the kind of experiment: Cell cycle arrest in human HCT116 cells assessed as accumulation at G1 phase at 20 uM after 24 hrs by propidium iodide staining-based flow cytometric analysis (reference value: 2.9%). It counts as functional. A general note: In flow cytometry, cells or beads pass a laser one at a time.
Assay [2] deals with HCT-116. Briefly: Induction of apoptosis in human HCT116 cells assessed as dead cells at 20 uM after 24 hrs by annexin V-FITC/propidium iodide staining-based flow cytometric analysis (reference value: 2%). It is filed as functional.
Assay [3] concerns the target Aurora kinase B (Homo sapiens) (UniProt Q96GD4). Briefly: Inhibition of human aurora-B. The following applies: concentration not given here.
In assay [4] the test system is HCT-116. As to the kind of experiment: Cell cycle arrest in human HCT116 cells assessed as accumulation at sub-G1 phase at 20 uM by propidium iodide staining-based flow cytometric analysis. It counts as functional. The following applies: TDE = time-dependent effect.
The target of assay [5] is Epidermal growth factor receptor (Homo sapiens) (UniProt P00533). As to the kind of experiment: Inhibition of human EGFR.
The subject of assay [6] is HCT-116. Briefly: Cell cycle arrest in human HCT116 cells assessed as accumulation at G1 phase at 20 uM after 12 hrs by propidium iodide staining-based flow cytometric analysis (reference value: 48.2%). It is filed as functional.
The target of assay [7] is T1, Discoidin domain-containing receptor 2 (Homo sapiens) (UniProt Q16832).
T1 sequence (whole entry): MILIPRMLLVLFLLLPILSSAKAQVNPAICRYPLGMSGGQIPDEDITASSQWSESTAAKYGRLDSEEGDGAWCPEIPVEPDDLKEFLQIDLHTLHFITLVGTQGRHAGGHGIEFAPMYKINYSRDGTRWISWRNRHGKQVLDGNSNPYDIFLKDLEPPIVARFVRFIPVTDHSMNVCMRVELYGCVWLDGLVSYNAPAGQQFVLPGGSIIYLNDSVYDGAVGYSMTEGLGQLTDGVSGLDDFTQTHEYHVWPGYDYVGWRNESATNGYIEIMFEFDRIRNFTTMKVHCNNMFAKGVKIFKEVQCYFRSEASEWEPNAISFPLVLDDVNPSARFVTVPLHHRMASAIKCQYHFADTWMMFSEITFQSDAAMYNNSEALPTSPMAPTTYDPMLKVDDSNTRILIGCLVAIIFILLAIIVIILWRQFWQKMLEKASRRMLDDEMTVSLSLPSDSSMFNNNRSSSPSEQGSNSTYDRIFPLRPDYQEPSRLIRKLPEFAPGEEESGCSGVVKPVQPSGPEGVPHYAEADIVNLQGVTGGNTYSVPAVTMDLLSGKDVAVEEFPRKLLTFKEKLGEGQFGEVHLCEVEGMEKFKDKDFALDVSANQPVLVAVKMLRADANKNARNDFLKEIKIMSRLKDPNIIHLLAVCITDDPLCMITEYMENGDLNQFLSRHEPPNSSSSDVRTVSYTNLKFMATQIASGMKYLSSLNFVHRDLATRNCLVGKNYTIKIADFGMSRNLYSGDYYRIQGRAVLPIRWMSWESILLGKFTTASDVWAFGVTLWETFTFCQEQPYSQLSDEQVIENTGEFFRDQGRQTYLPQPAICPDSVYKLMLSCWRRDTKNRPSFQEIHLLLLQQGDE
Briefly: Inhibition of human DDR2.

Assay [8] has as its system HCT-116. Briefly: Cell cycle arrest in human HCT116 cells assessed as accumulation at G2/M phase at 20 uM after 12 hrs by propidium iodide staining-based flow cytometric analysis (reference value: 20.8%). It counts as functional.
Assay [9] deals with HCT-116. Briefly: Induction of apoptosis in human HCT116 cells assessed as late apoptotic cells at 20 uM after 24 hrs by annexin V-FITC/propidium iodide staining-based flow cytometric analysis (reference value: 5%). It counts as functional.
Assay [10] has as its system HCT-116. Briefly: Induction of apoptosis in human HCT116 cells assessed as PARP cleavage at 20 uM after 24 to 48 hrs by Western blot analysis. It is filed as functional, cell-based.
For assay [11], the system named is HCT-116. Briefly: Cell cycle arrest in human HCT116 cells assessed as accumulation at S phase at 20 uM after 12 hrs by propidium iodide staining-based flow cytometric analysis (reference value: 26.9%). It is filed as functional.
Assay [12] addresses Tyrosine-protein kinase Lck (Homo sapiens) (UniProt P06239). Briefly: Inhibition of human LCK.
Assay [13] relates to HCT-116. Briefly: Cell cycle arrest in human HCT116 cells assessed as accumulation at sub-G1 phase at 20 uM after 12 hrs by propidium iodide staining-based flow cytometric analysis (reference value: 2.9%). It is filed as functional.
In assay [14] the test system is HCT-116. As to the kind of experiment: Induction of apoptosis in human HCT116 cells assessed as viable cells at 20 uM after 24 hrs by annexin V-FITC/propidium iodide staining-based flow cytometric analysis (reference value: 71 %). It is filed as functional. The following applies: HCT-116, 24 h, read-out: Activity.
Assay [15] has as its system HCT-116. As to the kind of experiment: Cell cycle arrest in human HCT116 cells assessed as accumulation at G1 phase at 20 uM after 48 hrs by propidium iodide staining-based flow cytometric analysis (reference value: 2.9%). It is filed as functional.
Assay [16] relates to HCT-116. As to the kind of experiment: Induction of apoptosis in human HCT116 cells assessed as early apoptotic cells at 20 uM after 24 hrs by annexin V-FITC/propidium iodide staining-based flow cytometric analysis (reference value: 22%). It is filed as functional.
Assay [17] concerns the target [Pyruvate dehydrogenase (acetyl-transferring)] kinase isozyme 1, mitochondrial (Homo sapiens) (UniProt Q15118). Briefly: Inhibition of human PDK1.
For assay [18], the system named is HCT-116. Briefly: Cell cycle arrest in human HCT116 cells assessed as accumulation at G2/M phase at 20 uM after 24 hrs by propidium iodide staining-based flow cytometric analysis (reference value: 2.9%). It counts as functional.
The test system of assay [19] is HCT-116. As to the kind of experiment: Cytotoxicity against human HCT116 cells assessed as cell survival at 5 to 40 uM after 7 days by crystal violet staining assay. Conditions: HCT-116, 168 h. It counts as functional, cell-based.
For assay [20], the system named is HCT-116. Briefly: Cell cycle arrest in human HCT116 cells assessed as accumulation at S phase at 20 uM after 24 hrs by propidium iodide staining-based flow cytometric analysis (reference value: 2.9%). It is filed as functional.
Assay [21] deals with HCT-116. As to the kind of experiment: Cell cycle arrest in human HCT116 cells assessed as accumulation at sub-G1 phase at 20 uM after 48 hrs by propidium iodide staining-based flow cytometric analysis (reference value: 2.9%). It counts as functional.
Assay [22] concerns the target Vascular endothelial growth factor receptor 2 (Homo sapiens) (UniProt P35968). As to the kind of experiment: Inhibition of human KDR.
Assay [23] concerns HCT-116. As to the kind of experiment: Induction of apoptosis in human HCT116 cells assessed as appearance of cleaved caspase-7 at fragmented chromosomes at 20 uM after 24 hrs by Hoechst 33258 staining-based fluorescence microscopic analysis. It counts as functional, cell-based.
Assay [24] has as its system HCT-116. Briefly: Induction of apoptosis in human HCT116 cells assessed as DNA content at sub-G1 phase at 20 uM after 24 hrs by annexin V-FITC/propidium iodide staining-based flow cytometric analysis (reference value: 92%). It counts as functional.

Calls of active or inactive are those of the source. No cut-off for these calls is given here.

Chain of Vascular endothelial growth factor receptor 2 (Homo sapiens) (P35968 whole entry, the tested form may be a part): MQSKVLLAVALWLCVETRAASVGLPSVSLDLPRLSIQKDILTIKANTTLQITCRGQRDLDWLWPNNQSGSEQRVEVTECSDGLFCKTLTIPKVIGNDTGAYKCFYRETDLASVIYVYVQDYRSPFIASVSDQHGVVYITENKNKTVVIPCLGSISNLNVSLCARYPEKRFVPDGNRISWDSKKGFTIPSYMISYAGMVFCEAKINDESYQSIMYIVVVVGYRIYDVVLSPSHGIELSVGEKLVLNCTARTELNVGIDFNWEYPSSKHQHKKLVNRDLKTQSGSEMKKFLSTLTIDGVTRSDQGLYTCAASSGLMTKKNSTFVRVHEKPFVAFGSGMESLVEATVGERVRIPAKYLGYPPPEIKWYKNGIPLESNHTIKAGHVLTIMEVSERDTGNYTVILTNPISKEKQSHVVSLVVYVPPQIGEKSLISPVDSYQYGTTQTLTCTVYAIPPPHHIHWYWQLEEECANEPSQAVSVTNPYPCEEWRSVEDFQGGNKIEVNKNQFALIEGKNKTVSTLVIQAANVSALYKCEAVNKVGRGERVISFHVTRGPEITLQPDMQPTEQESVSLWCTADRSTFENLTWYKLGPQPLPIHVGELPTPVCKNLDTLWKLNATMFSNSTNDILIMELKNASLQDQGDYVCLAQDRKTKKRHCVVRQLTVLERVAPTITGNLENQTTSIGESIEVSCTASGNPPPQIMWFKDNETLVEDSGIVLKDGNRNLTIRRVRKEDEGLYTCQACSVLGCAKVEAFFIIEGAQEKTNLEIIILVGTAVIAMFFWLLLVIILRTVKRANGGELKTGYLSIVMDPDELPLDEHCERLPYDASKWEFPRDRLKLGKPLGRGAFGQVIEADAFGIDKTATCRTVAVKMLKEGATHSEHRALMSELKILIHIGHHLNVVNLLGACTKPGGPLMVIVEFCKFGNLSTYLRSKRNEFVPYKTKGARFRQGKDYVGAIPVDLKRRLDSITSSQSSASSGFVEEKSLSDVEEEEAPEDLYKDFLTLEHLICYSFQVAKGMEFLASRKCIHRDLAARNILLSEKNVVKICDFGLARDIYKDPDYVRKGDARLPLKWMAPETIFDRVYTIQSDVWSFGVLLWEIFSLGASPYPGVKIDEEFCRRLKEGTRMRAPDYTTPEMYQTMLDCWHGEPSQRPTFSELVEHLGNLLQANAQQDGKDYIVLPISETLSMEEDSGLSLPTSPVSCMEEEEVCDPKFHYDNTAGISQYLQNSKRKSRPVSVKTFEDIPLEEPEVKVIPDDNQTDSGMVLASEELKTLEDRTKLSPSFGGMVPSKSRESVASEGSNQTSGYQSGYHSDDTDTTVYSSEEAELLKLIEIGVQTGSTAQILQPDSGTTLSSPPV
Chain of Aurora kinase B (Homo sapiens) (Q96GD4 whole entry): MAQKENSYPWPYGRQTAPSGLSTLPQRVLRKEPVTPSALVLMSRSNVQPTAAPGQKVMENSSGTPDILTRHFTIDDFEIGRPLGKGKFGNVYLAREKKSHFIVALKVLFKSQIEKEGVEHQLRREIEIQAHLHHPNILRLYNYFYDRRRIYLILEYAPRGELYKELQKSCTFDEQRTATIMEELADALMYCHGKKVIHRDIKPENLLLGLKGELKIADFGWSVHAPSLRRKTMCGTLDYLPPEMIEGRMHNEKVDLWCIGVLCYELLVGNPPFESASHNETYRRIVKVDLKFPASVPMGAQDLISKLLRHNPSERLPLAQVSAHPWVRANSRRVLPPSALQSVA
Chain of Epidermal growth factor receptor (Homo sapiens) (P00533 whole entry): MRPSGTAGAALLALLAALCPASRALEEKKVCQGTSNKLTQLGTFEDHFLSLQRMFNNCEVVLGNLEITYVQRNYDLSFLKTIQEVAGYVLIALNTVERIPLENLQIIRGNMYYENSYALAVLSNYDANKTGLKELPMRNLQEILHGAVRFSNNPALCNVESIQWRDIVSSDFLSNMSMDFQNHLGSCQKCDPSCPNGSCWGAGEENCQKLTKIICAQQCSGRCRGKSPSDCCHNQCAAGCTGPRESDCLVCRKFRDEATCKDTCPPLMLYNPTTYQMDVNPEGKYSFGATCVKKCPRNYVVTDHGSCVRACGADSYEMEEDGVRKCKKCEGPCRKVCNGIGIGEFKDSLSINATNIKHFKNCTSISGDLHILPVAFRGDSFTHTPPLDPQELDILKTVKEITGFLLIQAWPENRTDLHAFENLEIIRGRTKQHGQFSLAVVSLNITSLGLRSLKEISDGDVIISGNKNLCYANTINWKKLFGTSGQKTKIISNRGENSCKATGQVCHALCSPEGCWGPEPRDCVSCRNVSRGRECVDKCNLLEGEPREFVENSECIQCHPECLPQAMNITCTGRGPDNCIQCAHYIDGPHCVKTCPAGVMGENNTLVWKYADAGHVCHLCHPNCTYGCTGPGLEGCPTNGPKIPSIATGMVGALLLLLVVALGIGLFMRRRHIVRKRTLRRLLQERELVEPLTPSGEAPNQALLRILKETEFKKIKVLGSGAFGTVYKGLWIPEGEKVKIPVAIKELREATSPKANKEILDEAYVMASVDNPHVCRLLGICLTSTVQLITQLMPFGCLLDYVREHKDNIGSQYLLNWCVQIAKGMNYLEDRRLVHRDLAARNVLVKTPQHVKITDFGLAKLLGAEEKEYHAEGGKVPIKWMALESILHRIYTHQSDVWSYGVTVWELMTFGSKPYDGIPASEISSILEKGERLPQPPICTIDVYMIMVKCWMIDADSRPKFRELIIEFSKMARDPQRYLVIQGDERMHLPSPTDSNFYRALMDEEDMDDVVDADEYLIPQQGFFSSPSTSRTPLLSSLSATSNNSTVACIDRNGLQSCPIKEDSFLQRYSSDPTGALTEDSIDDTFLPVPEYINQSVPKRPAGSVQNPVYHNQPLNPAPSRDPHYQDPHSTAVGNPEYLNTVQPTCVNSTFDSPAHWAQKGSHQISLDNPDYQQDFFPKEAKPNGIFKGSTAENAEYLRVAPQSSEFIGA
Chain of Tyrosine-protein kinase Lck (Homo sapiens) (P06239 2-509 limits assumed): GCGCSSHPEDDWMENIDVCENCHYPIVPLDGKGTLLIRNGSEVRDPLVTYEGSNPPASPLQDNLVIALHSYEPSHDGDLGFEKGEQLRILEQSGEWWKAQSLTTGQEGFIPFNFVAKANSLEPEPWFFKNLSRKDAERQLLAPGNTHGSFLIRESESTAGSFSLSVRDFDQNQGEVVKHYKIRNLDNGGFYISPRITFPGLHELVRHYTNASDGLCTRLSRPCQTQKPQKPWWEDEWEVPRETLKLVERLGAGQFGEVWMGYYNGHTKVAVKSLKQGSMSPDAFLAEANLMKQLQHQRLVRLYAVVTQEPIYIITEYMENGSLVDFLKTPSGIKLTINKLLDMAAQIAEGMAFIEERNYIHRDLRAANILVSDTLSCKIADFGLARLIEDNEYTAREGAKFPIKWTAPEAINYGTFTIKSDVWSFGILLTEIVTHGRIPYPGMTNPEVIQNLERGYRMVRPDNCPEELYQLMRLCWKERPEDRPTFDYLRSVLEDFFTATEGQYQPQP

For the compound `COc1ccc2c(c1)C=C(C(=O)/C=C/c1c(OC)cc(OC)cc1OC)CO2`, the Activity in the assay with HCT-116 [1] was 23.1%; with HCT-116 [2], 0%; in the assay with HCT-116 [4] it was “tde”; in the assay on HCT-116 [6], 18.9%; in the assay on HCT-116 [8] it was 44.2%; in the assay with HCT-116 [9] it was 14%. Besides, the Activity in the assay with HCT-116 [11] was found to be 19.6%; in the assay with HCT-116 [13], 15.1%; with HCT-116 [15], 29.5%; in the assay on HCT-116 [16], 86%; in the assay on HCT-116 [18] it was 21.5%; with HCT-116 [20], 13.6%. The Activity came to 45.3% with HCT-116 [21] and 1% in the assay with HCT-116 [24]. This compound gave an inhibition in assay [3] of 65%. Further, the inhibition result in assay [5], in assay [7], in [12], in [17] and in [22] was “inactive” in each case. Moreover, the outcome in the assay with HCT-116 [10] and in the assay on HCT-116 [23] was Active. The viability at 20 µM in the assay on HCT-116 [14] was 0%. The IC50 in the assay on HCT-116 [19] is 93 nM.
